“Also recorded” adds a separate entry of the source.
Tests used:
[1] = tested on: T cells; assay: T cell proliferation by CellTrace Violet dilution (flow cytometry); type: cell-based, human
Procedure: (§1) Peripheral blood mononuclear cells (PBMC) are a heterogeneous cellular population containing T cells. PBMC were harvested from normal donors and labeled with a fluorescent dye (CellTrace® Violet, Molecular Probes), whose intensity is progressively diluted by a factor of two with each cell division. The labeled PBMCs were used as a source of cells for T cell expansion. […] The impact of MK-2206 on cell division was assayed by evaluating CellTrace Violet dilution with flow cytometry after the addition of 0.025 μM, 0.074 μM, 0.222 μM, 0.67 μM, or 2.0 μM, MK-2206 to the T cultures at day 0. […] A pairwise t test was performed on all day seven cultures; (each concentration of MK-2206 was compared to 0 μM MK-2206: the cultures were not statistically different at the p≤0.05 level).

[2] = tested on: T cells; assay: CD62L expression on T cells cultured with MK-2206; type: cell-based, human
Procedure: as §1, with “level). The purpose of this experiment was to determine the effect of Akt inhibitors on T cell markers for T cell potency. The impact of MK-2206 (Selleckchem) on T cell potency was assessed by measuring CD62L expression in the T cell cultures manufactured in Example 1. Mouse models have shown that CD62L expression identifies potent T cells; T cells with greater anti-tumor efficacy after adoptive transfer. […] FIG. 2. A pairwise T test was performed on all day seven cultures (each concentration of MK-2206 was compared to 0 μM MK-2206: *p<0.05, **p<0.01).” for “level).”

[3] = tested on: anti-BCMA CAR T cells; assay: CD62L expression on anti-BCMA CAR T cells by flow cytometry at end of culture; type: cell-based, human
Procedure: CAR T cells were cultured with either MK-2206 or triciribine phosphate-TCN (AKT inhibitors) or ZSTK474 (PI3K inhibitor). CAR T cells specific for B cell maturation antigen (BCMA) were used in these set of experiments. CAR T cell cultures were performed using a system directly scalable to large clinical manufacturing processes. […] 2×10^8 transducing units of lentivirus encoding anti-BCMA CARs were added one day after culture initiation. […] At the end of culture, the anti-BCMA CAR T cells were interrogated for phenotype.
Expression of CD62L on anti-BCMA CAR T cells was assessed by flow cytometry at the end of culture. Anti-BCMA CAR T cells were specifically identified using recombinant human BCMA-IgG Fc conjugated to PE. CD62L expression was determined with a co-stain using an antibody specific to CD62L. […] (FIG. 3).
Anti-BCMA CAR T cells cultures were prepared using a system directly scalable to large clinical manufacturing processes. […] 2×10^8 transducing units of lentivirus encoding anti-BCMA CARs were added one day after culture initiation. […] At the end of culture, the anti-BCMA CAR T cells were interrogated for phenotype.
Expression of CD62L on anti-BCMA CAR T cells was assessed by flow cytometry at the end of culture. Anti-BCMA CAR T cells were specifically identified using recombinant human BCMA-IgG Fc conjugated to PE. CD62L expression was determined with a co-stain using an antibody specific to CD62L. […] (FIG. 7).

[4] = tested on: anti-BCMA CAR T cells; assay: Integrated copies of anti-BCMA CAR (vector copy number) by quantitative PCR; type: cell-based, human; settings: end of culture, four normal donors, 1×10^8 transducing units lentivirus
Procedure: (§2) 1×10^8 transducing units of lentivirus encoding anti-BCMA CARs were added one day after culture initiation and at the end of culture, the anti-BCMA CAR T cells were interrogated for genomic integration and cell surface expression of the anti-BCMA CAR.
Integrated copies of the anti-BCMA CAR were assessed by quantitative PCR at the end of culture using primers that detect the vector or the genomic control RNAseP.

[5] = tested on: anti-BCMA CAR T cells; assay: Cell surface expression of anti-BCMA CAR by flow cytometry; type: cell-based, human; settings: end of culture, four normal donors
Procedure: as §2
Expression of the anti-BCMA CAR on the surface of T cells was assessed by flow cytometry at the end of culture. Anti-BCMA CAR T cells were specifically identified using recombinant human BCMA-IgG Fc conjugated to PE.

[6] = tested on: anti-BCMA CAR T cells; assay: Cell surface marker expression by multiparameter mass cytometry (CyTOF); type: cell-based
Procedure: Expression analysis of 29 additional cell surface markers on anti-BCMA CAR T cells cultured with IL-2 and ZSTK474 was performed using multiparameter mass cytometry (CyTOF) and compared with CAR T cells cultured in IL-2 alone.

[7] = tested on: anti-BCMA CAR T cells; assay: CD127, CD197, CD38 co-expression by fluorescence-based flow cytometry; type: cell-based; settings: seven donors, ten days of culture
Description: The mass cytometry data in Example 8 identified a set of cell surface markers that further characterizes the phenotype of CART cells cultured in the presence of ZSTK474. […] CAR T cells from seven donors cultured in the presence or absence of ZSTK474 were stained with fluorescently labeled antibodies to CD127, CD197, and CD38. […] FIG. 9.

[8] = tested on: anti-BCMA CAR T cells; assay: CD8 expression by flow cytometry; type: cell-based, human; settings: seven normal donors, IL-2 and ZSTK474
Procedure: CD8 expression was determined using a fluorescently-labeled anti-CD8 antibody and flow cytometry. […] FIG. 10.

[9] = tested on: anti-BCMA CAR T cells; assay: Tonic (antigen-independent) IFN-γ release by ELISA; type: cell-based; settings: 14 donors; after ten days of culture; IFN-γ levels below 200 pg/mL represent no tonic activity
Procedure: Tonic activity of CAR T cells in the absence of antigen has been associated with reduced biological activity. […] Anti-BCMA CAR T cells cultures were prepared using a system directly scalable to large clinical manufacturing processes. […] 2×10^8 transducing units of lentivirus encoding anti-BCMA CARs were added one day after culture initiation. […] At the end of manufacture, an equivalent number of anti-BCMA CAR T cells were re-cultured for 24 hours in media alone. The amount of IFN-γ released in 24 hours was quantified by ELISA. In this assay IFN-γ levels below 200 pg/mL represent no tonic activity.

[10] = Example 3: ten days of culture with IL-2 and optimized dose of inhibitor, three normal donors
[11] = Example 7: ten days of culture with IL-2 and optimized dose of inhibitor, four normal donors

Row | SMILES | T cell division / proliferation vs vehicle or non-treated controls ([1]; seven days of culture, 0.025-2.0 μM MK-2206, IL-2, pairwise t test p≤0.05) | T cell division / proliferation vs no treatment control ([1]; three days of culture, 0.025-2.0 μM MK-2206, IL-2, CD3 and CD28 antibodies) | CD62L expression on T cells vs no treatment control ([2]; seven days of culture, all concentrations of MK-2206 tested, in presence of IL-2) | CD62L expression on T cells vs no treatment control ([2]; three days of culture with MK-2206) | CD62L expression on anti-BCMA CAR T cells vs IL-2 alone [3, 10] | CD62L expression on anti-BCMA CAR T cells vs IL-2 alone [3, 11] | integrated copies of the anti-BCMA CAR vs IL-2 only [4] | anti-BCMA CAR expression on the surface of T cells vs IL-2 alone [5] | percentage of cells co-expressing CD127, CD197 and CD38 vs IL-2 alone (Venn diagrams) ([6]; CD62L positive anti-BCMA T cells, ten days of culture) | anti-BCMA CAR T cells co-expressing CD127, CD197 and CD38 ([6]; CyTOF, CD62L positive cells, ten days of culture) [%] | expression of CD127, CD197 and CD38 vs IL-2 alone ([6]; CyTOF, anti-BCMA CAR T cells cultured with IL-2 and ZSTK474) | anti-BCMA CAR T cells co-expressing CD127, CD197 and CD38 vs IL-2 alone [7] | CD8 expression vs IL-2 alone [8] | IFN-γ released in 24 hours in media alone (tonic activity) [9]
1 | NC1(c2ccc(-c3nc4ccn5c(=O)[nH]nc5c4cc3-c3ccccc3)cc2)CCC1 [MK-2206] | no statistically significant differences in T cell division; also recorded: not substantially different | did not substantially decrease T cell division; also recorded: only slightly decreased | significantly increases CD62L expression; also recorded: significant higher levels of CD62L expression | not substantially different | significantly higher CD62L expression | significantly higher CD62L expression | significantly more integrated copies | significantly higher CAR expression |  |  |  |  |  | 
2 | Nc1nc(N)c2nc(-c3cccc(O)c3)cnc2n1 [TG100713] |  |  |  |  |  | significantly higher CD62L expression |  |  |  |  |  |  |  | 
3 | FC(F)c1nc2ccccc2n1-c1nc(N2CCOCC2)nc(N2CCOCC2)n1 [ZSTK474] |  |  |  |  | increased CD62L expression; also recorded: significantly higher CD62L expression | significantly higher CD62L expression |  |  | increase in the percentage of cells co-expressing CD127, CD197 and CD38 | 24.5 | increased expression | significant increase; also recorded: increase in the percentage of cells co-expressing CD127, CD197 and CD38 | significantly higher CD8 expression; also recorded: increased percentage of CD8 expressing anti-BCMA CAR T cells | consistent with lacking tonic activity; also recorded: did not significantly increase

Source: patent US11479755B2, “T cell compositions” (2seventy bio, Inc., priority 2015, dated 2022)
